Results: ChEMBL document CHEMBL3227999, “Synthesis and biological properties of N2-substituted spin-labeled analogues of actinomycin D” (J Med Chem, 1979)
Calls of active or inactive are those of the source. The rule behind the calls is not given here. Numbered stars: 1 amine (or outer) side, 2 acyl side, 3 side chain; on linkers, the order of the positions; unused ones are H or OH. Bridge positions count the residues as written; N and C are the ends. Square brackets hold non-standard residues; d marks the D form. Peptide text beside a SMILES is read from it. I, II: the chains in the order shown. Actinocin(9to1) = Cc1c2oc3c(C)ccc(C(=O)[*:1])c3nc-2c(C(=O)[*:2])c(N)c1=O; NMeV = CN[C@H](C(=O)O)C(C)C; Sar = CNCC(=O)O

Experiments:
Mus musculus [1] = test: Toxicity in mouse P388 cells allografted CDF1 mouse assessed as mortality at 0.4 mg/kg, ip administered on day 1, 5 and 9; type: organism-based; set-up: dose 0.4 mg/kg, route intraperitoneal; conditions: in vivo
Mus musculus [2] = test: Toxicity in mouse P388 cells allografted CDF1 mouse assessed as mortality at 0.27 mg/kg, ip administered on day 1, 5 and 9; type: organism-based; set-up: dose 0.27 mg/kg, route intraperitoneal; conditions: in vivo
Mus musculus [3] = test: Toxicity in mouse P388 cells allografted CDF1 mouse assessed as weight loss at 0.18 mg/kg, ip administered on day 1, 5 and 9; type: organism-based; set-up: dose 0.18 mg/kg, route intraperitoneal; conditions: in vivo
Calf thymus DNA [4] = test: Binding affinity to calf thymus DNA at 1 x 10^-5 M after 30 mins by circular dichroism analysis; type: nucleic-acid assay; conditions: Bos taurus
Calf thymus DNA [5] = test: Binding affinity to calf thymus DNA at 1 x 10^-5 M by thermal denaturation assay; type: nucleic-acid assay; conditions: Bos taurus
[6] = target: T1, Bacterial DNA-directed RNA polymerase (Bacteria) (UniProt P0A8V2+P0A7Z4+P0A8T7+P0A800); test: Inhibition of Escherichia coli DNA-dependent RNA polymerase at 20 ug/ml using calf thymus DNA as primer; type: protein-complex assay
[7] = target: T1, Bacterial DNA-directed RNA polymerase (Bacteria); test: Inhibition of Escherichia coli DNA-dependent RNA polymerase at 20 ug/ml using Micrococcus luteus DNA as primer; type: protein-complex assay
[8] = target: T1, Bacterial DNA-directed RNA polymerase (Bacteria); test: Inhibition of Escherichia coli DNA-dependent RNA polymerase at 10 ug/ml using calf thymus DNA as primer; type: protein-complex assay
[9] = target: T1, Bacterial DNA-directed RNA polymerase (Bacteria); test: Inhibition of Escherichia coli DNA-dependent RNA polymerase at 10 ug/ml using Micrococcus luteus DNA as primer; type: protein-complex assay
[10] = target: T1, Bacterial DNA-directed RNA polymerase (Bacteria); test: Inhibition of Escherichia coli DNA-dependent RNA polymerase at 5 ug/ml using calf thymus DNA as primer; type: protein-complex assay
[11] = target: T1, Bacterial DNA-directed RNA polymerase (Bacteria); test: Inhibition of Escherichia coli DNA-dependent RNA polymerase at 5 ug/ml using Micrococcus luteus DNA as primer; type: protein-complex assay
[12] = target: T1, Bacterial DNA-directed RNA polymerase (Bacteria); test: Inhibition of Escherichia coli DNA-dependent RNA polymerase at 2.5 ug/ml using calf thymus DNA as primer; type: protein-complex assay
[13] = target: T1, Bacterial DNA-directed RNA polymerase (Bacteria); test: Inhibition of Escherichia coli DNA-dependent RNA polymerase at 2.5 ug/ml using Micrococcus luteus DNA as primer; type: protein-complex assay
[14] = target: T1, Bacterial DNA-directed RNA polymerase (Bacteria); test: Inhibition of Escherichia coli DNA-dependent RNA polymerase at 1 ug/ml using calf thymus DNA as primer; type: protein-complex assay
[15] = target: T1, Bacterial DNA-directed RNA polymerase (Bacteria); test: Inhibition of Escherichia coli DNA-dependent RNA polymerase at 1 ug/ml using Micrococcus luteus DNA as primer; type: protein-complex assay
[16] = target: T1, Bacterial DNA-directed RNA polymerase (Bacteria); test: Inhibition of Escherichia coli DNA-dependent RNA polymerase at 0.5 ug/ml using calf thymus DNA as primer; type: protein-complex assay
[17] = target: T1, Bacterial DNA-directed RNA polymerase (Bacteria); test: Inhibition of Escherichia coli DNA-dependent RNA polymerase at 0.5 ug/ml using Micrococcus luteus DNA as primer; type: protein-complex assay
[18] = target: T1, Bacterial DNA-directed RNA polymerase (Bacteria); test: Inhibition of Escherichia coli DNA-dependent RNA polymerase at 0.25 ug/ml using calf thymus DNA as primer; type: protein-complex assay
[19] = target: T1, Bacterial DNA-directed RNA polymerase (Bacteria); test: Inhibition of Escherichia coli DNA-dependent RNA polymerase at 0.25 ug/ml using Micrococcus luteus DNA as primer; type: protein-complex assay
[20] = target: T1, Bacterial DNA-directed RNA polymerase (Bacteria); test: Inhibition of Escherichia coli DNA-dependent RNA polymerase at 0.1 ug/ml using calf thymus DNA as primer; type: protein-complex assay
[21] = target: T1, Bacterial DNA-directed RNA polymerase (Bacteria); test: Inhibition of Escherichia coli DNA-dependent RNA polymerase at 0.1 ug/ml using Micrococcus luteus DNA as primer; type: protein-complex assay
[22] = target: T1, Bacterial DNA-directed RNA polymerase (Bacteria); test: Inhibition of Escherichia coli DNA-dependent RNA polymerase at 0.05 ug/ml using calf thymus DNA as primer; type: protein-complex assay
[23] = target: T1, Bacterial DNA-directed RNA polymerase (Bacteria); test: Inhibition of Escherichia coli DNA-dependent RNA polymerase at 0.05 ug/ml using Micrococcus luteus DNA as primer; type: protein-complex assay
[24] = target: Bacterial DNA-directed RNA polymerase (Bacteria, UniProt P0A7Z4+P0A800+P0A8T7+P0A8V2); test: Inhibition of Escherichia coli DNA-dependent RNA polymerase; type: protein-complex assay
Chain of Bacterial DNA-directed RNA polymerase (P0A8V2 whole entry): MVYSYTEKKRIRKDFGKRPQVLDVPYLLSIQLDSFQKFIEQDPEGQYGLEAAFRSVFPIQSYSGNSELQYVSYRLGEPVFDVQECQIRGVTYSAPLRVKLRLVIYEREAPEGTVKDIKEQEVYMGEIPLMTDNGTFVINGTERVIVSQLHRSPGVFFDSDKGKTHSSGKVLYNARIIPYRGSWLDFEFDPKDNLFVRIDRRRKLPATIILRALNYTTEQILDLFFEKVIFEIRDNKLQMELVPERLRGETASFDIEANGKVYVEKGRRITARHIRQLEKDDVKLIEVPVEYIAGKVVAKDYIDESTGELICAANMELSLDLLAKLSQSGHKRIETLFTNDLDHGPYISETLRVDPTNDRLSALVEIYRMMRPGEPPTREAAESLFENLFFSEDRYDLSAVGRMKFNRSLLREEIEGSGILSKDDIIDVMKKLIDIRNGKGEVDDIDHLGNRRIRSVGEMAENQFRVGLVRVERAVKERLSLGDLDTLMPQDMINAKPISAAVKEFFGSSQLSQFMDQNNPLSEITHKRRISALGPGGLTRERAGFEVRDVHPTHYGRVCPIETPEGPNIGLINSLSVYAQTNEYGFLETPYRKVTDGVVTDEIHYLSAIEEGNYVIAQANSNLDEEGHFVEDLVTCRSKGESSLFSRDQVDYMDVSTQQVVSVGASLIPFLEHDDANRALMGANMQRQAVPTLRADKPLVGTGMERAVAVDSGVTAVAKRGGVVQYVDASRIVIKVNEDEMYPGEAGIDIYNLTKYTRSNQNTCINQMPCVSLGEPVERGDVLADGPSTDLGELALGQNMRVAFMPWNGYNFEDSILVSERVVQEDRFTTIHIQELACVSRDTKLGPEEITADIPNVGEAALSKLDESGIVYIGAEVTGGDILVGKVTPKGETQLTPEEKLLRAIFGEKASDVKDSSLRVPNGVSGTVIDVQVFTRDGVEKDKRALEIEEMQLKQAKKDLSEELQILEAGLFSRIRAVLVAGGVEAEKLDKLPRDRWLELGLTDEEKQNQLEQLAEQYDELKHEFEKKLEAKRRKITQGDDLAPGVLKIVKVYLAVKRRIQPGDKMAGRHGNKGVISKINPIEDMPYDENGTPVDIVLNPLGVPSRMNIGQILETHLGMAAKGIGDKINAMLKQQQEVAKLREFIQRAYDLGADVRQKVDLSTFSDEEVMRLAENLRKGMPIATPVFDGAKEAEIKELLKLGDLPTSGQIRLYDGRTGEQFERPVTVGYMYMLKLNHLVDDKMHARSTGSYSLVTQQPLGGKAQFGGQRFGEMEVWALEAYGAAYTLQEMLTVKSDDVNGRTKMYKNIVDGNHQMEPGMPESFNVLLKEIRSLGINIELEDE
Chain of Bacterial DNA-directed RNA polymerase (P0A7Z4 whole entry): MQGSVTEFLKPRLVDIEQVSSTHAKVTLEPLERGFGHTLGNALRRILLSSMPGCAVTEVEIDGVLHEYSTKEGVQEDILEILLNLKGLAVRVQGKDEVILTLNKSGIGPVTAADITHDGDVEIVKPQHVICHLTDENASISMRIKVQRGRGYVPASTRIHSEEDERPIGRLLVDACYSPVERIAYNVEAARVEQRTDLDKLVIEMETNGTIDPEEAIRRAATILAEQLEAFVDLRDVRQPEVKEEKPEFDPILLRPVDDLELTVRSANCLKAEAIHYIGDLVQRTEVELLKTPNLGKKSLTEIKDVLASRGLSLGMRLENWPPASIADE
Chain of Bacterial DNA-directed RNA polymerase (P0A8T7 whole entry): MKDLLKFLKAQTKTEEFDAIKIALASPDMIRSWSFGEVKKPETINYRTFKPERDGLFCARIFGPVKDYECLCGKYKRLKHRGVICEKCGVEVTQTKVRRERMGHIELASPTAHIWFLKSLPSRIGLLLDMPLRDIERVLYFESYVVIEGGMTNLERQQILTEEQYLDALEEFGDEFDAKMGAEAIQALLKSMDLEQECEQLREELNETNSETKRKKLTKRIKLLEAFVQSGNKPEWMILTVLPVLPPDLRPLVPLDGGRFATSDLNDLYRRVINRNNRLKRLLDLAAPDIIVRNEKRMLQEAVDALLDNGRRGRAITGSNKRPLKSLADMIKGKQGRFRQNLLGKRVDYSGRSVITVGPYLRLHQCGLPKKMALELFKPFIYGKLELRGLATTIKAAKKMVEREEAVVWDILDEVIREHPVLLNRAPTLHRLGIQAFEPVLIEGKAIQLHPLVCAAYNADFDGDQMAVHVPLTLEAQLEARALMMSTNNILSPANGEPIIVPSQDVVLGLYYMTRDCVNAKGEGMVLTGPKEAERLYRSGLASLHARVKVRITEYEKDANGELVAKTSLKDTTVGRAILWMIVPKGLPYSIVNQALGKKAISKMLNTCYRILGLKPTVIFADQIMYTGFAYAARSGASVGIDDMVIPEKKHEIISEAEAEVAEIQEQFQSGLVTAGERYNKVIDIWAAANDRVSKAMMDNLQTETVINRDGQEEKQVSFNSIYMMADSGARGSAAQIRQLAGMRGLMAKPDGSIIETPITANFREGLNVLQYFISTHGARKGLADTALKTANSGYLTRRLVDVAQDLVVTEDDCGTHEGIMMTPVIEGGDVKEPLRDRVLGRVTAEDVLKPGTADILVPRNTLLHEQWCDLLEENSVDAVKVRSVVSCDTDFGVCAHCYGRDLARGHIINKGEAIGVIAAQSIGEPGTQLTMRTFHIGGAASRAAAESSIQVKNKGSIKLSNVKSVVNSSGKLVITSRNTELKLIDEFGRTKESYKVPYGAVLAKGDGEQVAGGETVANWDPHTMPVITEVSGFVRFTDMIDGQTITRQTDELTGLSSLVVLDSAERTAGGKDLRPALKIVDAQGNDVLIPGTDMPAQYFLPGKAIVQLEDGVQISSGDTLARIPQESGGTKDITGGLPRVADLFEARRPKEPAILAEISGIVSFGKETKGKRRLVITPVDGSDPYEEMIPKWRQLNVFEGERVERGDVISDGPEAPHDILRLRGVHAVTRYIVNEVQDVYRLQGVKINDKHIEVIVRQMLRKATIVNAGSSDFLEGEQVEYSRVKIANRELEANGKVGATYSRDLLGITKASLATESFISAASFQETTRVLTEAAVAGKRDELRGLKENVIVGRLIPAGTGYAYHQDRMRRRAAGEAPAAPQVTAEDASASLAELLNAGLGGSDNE
Chain of Bacterial DNA-directed RNA polymerase (P0A800 whole entry): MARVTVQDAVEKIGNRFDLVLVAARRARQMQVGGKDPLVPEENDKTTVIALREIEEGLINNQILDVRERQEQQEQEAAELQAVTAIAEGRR

L1210 [25] = test: Cytotoxicity against mouse L1210 cells at 10 ug/ml after 48 hrs; type: functional; conditions: L1210, 48 h
L1210 [26] = test: Cytotoxicity against mouse L1210 cells at 5 ug/ml after 48 hrs; type: functional; conditions: L1210, 48 h
L1210 [27] = test: Cytotoxicity against mouse L1210 cells at 1 ug/ml after 48 hrs; type: functional; conditions: L1210, 48 h
L1210 [28] = test: Cytotoxicity against mouse L1210 cells at 0.5 ug/ml after 48 hrs; type: functional; conditions: L1210, 48 h
L1210 [29] = test: Cytotoxicity against mouse L1210 cells at 0.1 ug/ml after 48 hrs; type: functional; conditions: L1210, 48 h
L1210 [30] = test: Cytotoxicity against mouse L1210 cells at 0.05 ug/ml after 48 hrs; type: functional; conditions: L1210, 48 h
L1210 [31] = test: Cytotoxicity against mouse L1210 cells at 0.01 ug/ml after 48 hrs; type: functional; conditions: L1210, 48 h
L1210 [32] = test: Cytotoxicity against mouse L1210 cells at 0.001 ug/ml after 48 hrs; type: functional; conditions: L1210, 48 h
P388 [33] = test: Antitumor activity against mouse P388 cells allografted in CDF1 mouse assessed as survival at 0.6 mg/kg, ip administered on day 1, 5 and 9; type: functional; conditions: route intraperitoneal
P388 [34] = test: Antitumor activity against mouse P388 cells allografted in CDF1 mouse assessed as survival at 0.4 mg/kg, ip administered on day 1, 5 and 9; type: functional; conditions: route intraperitoneal
P388 [35] = test: Antitumor activity against mouse P388 cells allografted in CDF1 mouse assessed as survival at 0.27 mg/kg, ip administered on day 1, 5 and 9; type: functional; conditions: route intraperitoneal
P388 [36] = test: Antitumor activity against mouse P388 cells allografted in CDF1 mouse assessed as survival at 0.18 mg/kg, ip administered on day 1, 5 and 9; type: functional; conditions: route intraperitoneal
P388 [37] = test: Antitumor activity against mouse P388 cells allografted in CDF1 mouse assessed as survival at 0.12 mg/kg, ip administered on day 1, 5 and 9; type: functional; conditions: route intraperitoneal
P388 [38] = test: Antitumor activity against mouse P388 cells allografted in CDF1 mouse assessed as survival at 0.08 mg/kg, ip administered on day 1, 5 and 9; type: functional; conditions: route intraperitoneal
Mus musculus [39] = test: Toxicity in mouse P388 cells allografted CDF1 mouse assessed as mortality at 0.6 mg/kg, ip administered on day 1, 5 and 9; type: organism-based; set-up: dose 0.6 mg/kg, route intraperitoneal; conditions: in vivo
Mus musculus [40] = test: Toxicity in mouse P388 cells allografted CDF1 mouse assessed as weight loss at 6 mg/kg, ip administered on day 1, 5 and 9; type: organism-based; set-up: dose 6 mg/kg, route intraperitoneal; conditions: in vivo
Mus musculus [41] = test: Toxicity in mouse P388 cells allografted CDF1 mouse assessed as mortality at 6 mg/kg, ip administered on day 1, 5 and 9; type: organism-based; set-up: dose 6 mg/kg, route intraperitoneal; conditions: in vivo
Mus musculus [42] = test: Toxicity in mouse P388 cells allografted CDF1 mouse assessed as weight loss at 4 mg/kg, ip administered on day 1, 5 and 9; type: organism-based; set-up: dose 4 mg/kg, route intraperitoneal; conditions: in vivo

`Cc1c2oc3c(C)ccc(C(=O)N[C@@H]4C(=O)N[C@H](C(C)C)C(=O)N5CCC[C@H]5C(=O)N(C)CC(=O)N(C)[C@@H](C(C)C)C(=O)O[C@@H]4C)c3nc-2c(C(=O)N[C@@H]2C(=O)N[C@H](C(C)C)C(=O)N3CCC[C@H]3C(=O)N(C)CC(=O)N(C)[C@@H](C(C)C)C(=O)O[C@@H]2C)c(N)c1=O` [DACTINOMYCIN] (I: T[dV]P[Sar][NMeV] / II: T[dV]P[Sar][NMeV]; ester I:1-I:C, II:1-II:C; linker I:N-II:N via Actinocin(9to1)) was tested, and the Activity (Mus musculus [1]) was “Toxic”, the Activity (Mus musculus [2]) was “Toxic” and the Activity (Mus musculus [3]) was “Toxic”. The Activity (Calf thymus DNA [4]) was “Active”, the ΔTm (Calf thymus DNA [5]) was 8.7 °C and the inhibition [6] was 100%. For the same molecule, the inhibition [7] was 99%, the inhibition [8] was 96% and the inhibition [9] was 99%. It also gave an inhibition [10] of 93%, an inhibition [11] of 95% and an inhibition [12] of 89%. It also gave an inhibition [13] of 92%, an inhibition [14] of 79% and an inhibition [15] of 72%. It also gave an inhibition [16] of 61%, an inhibition [17] of 54% and an inhibition [18] of 62%. The inhibition [19] was 44%, the inhibition [20] was 30% and the inhibition [21] was 16%. For the same molecule, the inhibition [22] was 17%, the inhibition [23] was 7% and the IC50 [24] was 0.159 µM. The inhibition at 10 µg/mL (L1210 [25]) was 98%, the inhibition at 5 µg/mL (L1210 [26]) was 99% and the inhibition at 1 µg/mL (L1210 [27]) was 97%. For the same molecule, the inhibition at 0.5 µg/mL (L1210 [28]) was 99%, the inhibition at 0.1 µg/mL (L1210 [29]) was 78% and the inhibition at 0.05 µg/mL (L1210 [30]) was 78%. It also gave an inhibition at 0.01 µg/mL (L1210 [31]) of 57%, an inhibition at 0.001 µg/mL (L1210 [32]) of 51% and a Survival (P388 [33]) of 5 days. The T/C (P388 [33]) was 48%, the Survival (P388 [34]) was 8 days and the T/C (P388 [34]) was 76%. For the same molecule, the Survival (P388 [35]) was 10 days, the T/C (P388 [35]) was 95% and the Survival (P388 [36]) was 18 days. The T/C (P388 [36]) was 171%, the Survival (P388 [37]) was 19 days and the T/C (P388 [37]) was 181%. The Survival (P388 [38]) was 15 days, the T/C (P388 [38]) was 143% and the Activity (Mus musculus [39]) was “Toxic”.

With `Cc1c2oc3c(C)ccc(C(=O)N[C@@H]4C(=O)N[C@H](C(C)C)C(=O)N5CCC[C@H]5C(=O)N(C)CC(=O)N(C)[C@@H](C(C)C)C(=O)O[C@@H]4C)c3nc-2c(C(=O)N[C@@H]2C(=O)N[C@H](C(C)C)C(=O)N3CCC[C@H]3C(=O)N(C)CC(=O)N(C)[C@@H](C(C)C)C(=O)O[C@@H]2C)c(NCCCNC2CC(C)(C)[N+]([O-])C(C)(C)C2)c1=O` the IC50 [24] was 2.73 µM and the Activity (Mus musculus [40]) was “Toxic”.

With `Cc1c2oc3c(C)ccc(C(=O)N[C@@H]4C(=O)N[C@H](C(C)C)C(=O)N5CCC[C@H]5C(=O)N(C)CC(=O)N(C)[C@@H](C(C)C)C(=O)O[C@@H]4C)c3nc-2c(C(=O)N[C@@H]2C(=O)N[C@H](C(C)C)C(=O)N3CCC[C@H]3C(=O)N(C)CC(=O)N(C)[C@@H](C(C)C)C(=O)O[C@@H]2C)c(NC2CC(C)(C)[N+]([O-])C(C)(C)C2)c1=O` the Activity (Mus musculus [40]) was “Toxic”.

For `Cc1c2oc3c(C)ccc(C(=O)N[C@@H]4C(=O)N[C@H](C(C)C)C(=O)N5CCC[C@H]5C(=O)N(C)CC(=O)N(C)[C@@H](C(C)C)C(=O)O[C@@H]4C)c3nc-2c(C(=O)N[C@@H]2C(=O)N[C@H](C(C)C)C(=O)N3CCC[C@H]3C(=O)N(C)CC(=O)N(C)[C@@H](C(C)C)C(=O)O[C@@H]2C)c(NCCNC2CC(C)(C)[N+]([O-])C(C)(C)C2)c1=O`, the IC50 [24] was 2.75 µM, the Activity (Mus musculus [41]) was “Toxic” and the Activity (Mus musculus [42]) was “Toxic”.
